Source: patent US20060182728A1, “Methods for treating pervasive development disorders” (priority 1999, published 2006)

Experiments:
[1] = tested on: children diagnosed as having autism; assay: Fecal Chymotrypsin Test after secretin infusion in autistic children; assay type: in vivo, human
Description: In this experiment, 16 children diagnosed as having autism were administered the following Fecal Chymotrypsin Test in accordance with an embodiment of the invention. First, approximately 2 grams of stool were collected from each child and placed in a sterile container (although it is to be understood that any quantity of stool may be collected, as 2 grams of stool is not a required amount). Each stool sample was then analyzed using, e.g., an enzymatic photospectrometry analysis as is known by those skilled in the art, to determine the level of fecal chymotrypsin in the stool. Although the enzymatic photospectrophotometry process is preferred, any suitable conventional method may be used for measuring the fecal chymotrypsin levels. This measured chymotrypsin levels of the 16 autistic children are illustrated in FIG. 13.
After determining the chymotrypsin levels of the stools, each of these levels were compared with threshold chymotrypsin levels to determine if the child was likely to benefit from secretin administration. By way of example, with the fecal chymotrypsin tests of the stool samples being performed at 30EC, normal levels of chymotrypsin are deemed to lie above 8.4 U/gram, whereas pathologically abnormal levels are deemed to lie below 4.2 U/gram. In addition, chymotrypsin levels between 8.4 U/gram and 4.2 U/gram are considered equivocal, and further testing of the individual's fecal chymotrypsin levels over a period of time should be performed.
For each of the 16 autistic children tested, a preferred secretin infusion process according to the present invention was performed involving the administering of 1 U/kg of body weight of Secretin-Ferring for a period of nine months at intervals of approximately 6 weeks. […]
In this experiment, 37 autistic children with abnormal fecal chymotrypsin levels were administered secretin over the course of 6 months using the secretin infusion process described above. Their fecal chymotrypsin (FC) levels were measured weekly using the fecal chymotrypsin test described above.

[2] = tested on: children diagnosed with ADHD; assay: Required Ritalin level of ADHD children administered secretin; assay type: in vivo, human; conditions: each of 5 ADHD children with pathologic FC level; 6 months post-secretin vs pre-secretin
Description: A preferred secretin infusion process includes the initial step of prepping an arm of the candidate child with an IV injection of saline. A test dose of 1 U of Secretin-Ferring is then administered to the child. Approximately one minute after infusion, the child is examined for signs of allergic reaction including rash, increased heart rate, and increase of blood pressure. […] Subsequently, each child receives a 1 U/kg of body weight infusion of Secretin-Ferring approximately every 6 weeks for 9 months. It is to be understood that any commercially available form of secretin may be used.
In this experiment, the fecal chymotrypsin levels of 34 children diagnosed with ADHD were obtained using the fecal chymotrypsin test described above in Experiment 1, the levels of which are illustrated in FIG. 16. As shown, 32 children out of 34 children tested were determined to have sub-normal fecal chymotrypsin levels.
To determine the effect of secretin administration on ADHD children, 5 of the 24 children having a pathologic fecal chymotrypsin level were administered secretin using the secretin infusion process described above.

[3] = 6 Months Post-Secretin Administration, of 37 children, 0 pre-secretin

For secretin, the “# Autistic Children w/Equivocal FC levels” value [1, 3] was 2, the “# Autistic Children w/normal FC levels” value [1, 3] was 34 and the “fecal chymotrypsin level post-secretin administration compared with pre-secretin” value ([1]; each of 16 autistic children, approximately one week after first secretin infusion, 1 U/kg IV) was “increased”. For the same substance, the “level of Ritalin (mg) needed to remain at the same functional level” value [2] was “significant changes”.
